From ChEMBL document CHEMBL1201862, “PubChem BioAssay data set” (2004)
Counter-ions that a name gives are not always drawn. Active and inactive are the calls of the source. Cut-off read from the data, not from the text of the source, for most assays here: actives have a measured EC50 and inactives only a lower limit.

Assays:
[1] = Luminescence Cell-Based Dose Confirmation HTS to Identify Activators of 5'UTR Stem-Loop Driven Alpha-Synuclein mRNA Translation in H4 Neuroglioblastoma Cells. [Related pubchem assays: 1829 (Project Summary), 1814 (Primary HTS)]; format: functional
[2] = Luminescence Cell-Based Dose Response HTS to Identify Activators of Luciferase Translation or Activity in H4 […] Cells. [Related pubchem assays: 1829 (Project Summary), 1814 (Primary HTS)]; format: functional
H4 = assay: Luminescence Cell-Based Dose Response HTS to Identify Activators of 5'UTR Stem-Loop Driven Prion Protein mRNA Translation in H4 Neuroglioblastoma Cells. [Related pubchem assays: 1829 (Project Summary), 1814 (Primary HTS)]; format: functional; conditions: Homo sapiens
[3] = biological target: T1, Corticotropin-releasing factor receptor 2/Corticotropin-releasing factor-binding protein (Homo sapiens, UniProt P24387+Q13324); assay: activators of CRF receptor 2 with binding protein – uHTS hits, confirmation (AID 602473); format: functional; conditions: read-out: EC50_Mean
T1 sequence (Q13324 whole entry): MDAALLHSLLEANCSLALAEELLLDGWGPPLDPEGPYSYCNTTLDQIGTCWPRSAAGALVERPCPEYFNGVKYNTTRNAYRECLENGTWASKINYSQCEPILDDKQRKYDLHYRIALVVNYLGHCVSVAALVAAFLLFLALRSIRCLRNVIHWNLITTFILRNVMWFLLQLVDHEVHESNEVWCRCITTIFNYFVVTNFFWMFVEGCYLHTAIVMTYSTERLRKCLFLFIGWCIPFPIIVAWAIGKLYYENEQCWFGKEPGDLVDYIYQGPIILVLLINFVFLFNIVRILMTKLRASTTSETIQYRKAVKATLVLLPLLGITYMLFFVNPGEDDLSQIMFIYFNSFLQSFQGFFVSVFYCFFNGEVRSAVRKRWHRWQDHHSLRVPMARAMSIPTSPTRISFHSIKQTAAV
T1 sequence (P24387 whole entry): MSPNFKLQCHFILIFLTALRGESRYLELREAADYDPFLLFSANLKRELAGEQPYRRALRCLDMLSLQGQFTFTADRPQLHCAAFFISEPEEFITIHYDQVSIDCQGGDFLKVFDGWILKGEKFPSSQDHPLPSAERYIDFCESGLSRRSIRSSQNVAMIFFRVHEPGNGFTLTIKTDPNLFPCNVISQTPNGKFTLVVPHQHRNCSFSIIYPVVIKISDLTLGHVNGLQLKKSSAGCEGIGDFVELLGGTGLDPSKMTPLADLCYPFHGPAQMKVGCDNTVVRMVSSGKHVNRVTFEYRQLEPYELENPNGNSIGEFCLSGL

[4] = Trypanosoma cruzi growth suppression in host cells – NIH3T3 host cells, beta-gal luminescence, confirmation (AID 2044); format: functional, cell-based;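 note: intracellular parasites grown in NIH/3T3 mouse fibroblasts as host cells; luminescent beta-galactosidase reporter signal from transgenic T. cruzi replicating inside host cells; inhibitors lower the luminescence signal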
[5] = NIH3T3 cell viability loss – ATP luminescence, mouse fibroblasts, counter-screen, dose response (AID 2010); format: functional, cell-based;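 note: cells exposed to compound for about 90 hours before reading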
Cytochrome P450 3A4 = Cytochrome P450 3A4 (Homo sapiens, UniProt P08684);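 note: CYP3A4 tested as one member of a cytochrome P450 panel screen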
Cytochrome P450 1A2 = biological target: T2, Cytochrome P450 1A2 (Homo sapiens, UniProt P05177);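 note: PubChem cytochrome P450 panel assay, CYP1A2 panel member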
T2 sequence (P05177 whole entry): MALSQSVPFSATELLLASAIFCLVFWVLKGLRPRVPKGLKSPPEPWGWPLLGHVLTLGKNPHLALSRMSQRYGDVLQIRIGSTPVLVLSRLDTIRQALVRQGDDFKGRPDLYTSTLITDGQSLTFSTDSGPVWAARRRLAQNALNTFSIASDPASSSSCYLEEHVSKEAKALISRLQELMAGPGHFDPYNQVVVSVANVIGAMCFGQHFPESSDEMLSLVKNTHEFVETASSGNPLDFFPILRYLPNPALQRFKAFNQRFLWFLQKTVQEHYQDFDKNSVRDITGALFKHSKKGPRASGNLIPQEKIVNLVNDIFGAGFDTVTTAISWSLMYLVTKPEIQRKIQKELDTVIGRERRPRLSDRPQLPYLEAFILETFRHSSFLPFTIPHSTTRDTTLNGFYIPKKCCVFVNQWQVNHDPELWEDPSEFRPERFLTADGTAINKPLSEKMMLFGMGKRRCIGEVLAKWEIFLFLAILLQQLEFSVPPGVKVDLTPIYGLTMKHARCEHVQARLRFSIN

Sequence of Cytochrome P450 3A4 (P08684 whole entry): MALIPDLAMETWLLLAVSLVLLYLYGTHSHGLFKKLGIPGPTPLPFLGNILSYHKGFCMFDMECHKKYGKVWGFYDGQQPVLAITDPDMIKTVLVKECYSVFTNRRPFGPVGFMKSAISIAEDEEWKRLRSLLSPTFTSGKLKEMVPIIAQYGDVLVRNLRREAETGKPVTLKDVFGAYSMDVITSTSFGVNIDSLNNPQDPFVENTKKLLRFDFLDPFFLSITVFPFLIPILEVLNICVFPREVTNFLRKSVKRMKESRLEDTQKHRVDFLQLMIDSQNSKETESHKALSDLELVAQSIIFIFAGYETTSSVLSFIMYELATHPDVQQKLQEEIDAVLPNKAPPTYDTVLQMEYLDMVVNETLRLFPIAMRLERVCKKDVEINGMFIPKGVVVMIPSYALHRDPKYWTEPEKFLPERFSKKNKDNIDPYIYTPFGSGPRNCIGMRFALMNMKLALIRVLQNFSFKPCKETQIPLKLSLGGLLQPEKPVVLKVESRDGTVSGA

In the case of `O=C1OC(c2ccccc2)=N/C1=C\N1CCCCC1`, the EC50 [1] was 0.176 µM (active), the EC50 [2] was 0.374 µM (active) and the EC50 (H4) was > 120 µM (not active).

For `c1ccc(Cn2c(Sc3nnnn3-c3ccccc3)nnc2-c2ccccc2)cc1`, the EC50 [1] was > 120 µM (not active), the EC50 [2] was 11.9 µM (active) and the EC50 (H4) was > 120 µM (not active).

With `CN(C(=O)c1ccc(S(=O)(=O)NC2CCCC2)cc1)C1CCCCC1` the EC50 [3] was > 53 µM (inactive).

In the case of `c1cncc(-c2nc(NCc3ccc4c(c3)OCO4)c3ccccc3n2)c1`, the EC50 [4] was 0.921 µM (active) and the EC50 [5] was > 30 µM (not active).

For `Nc1c(-c2ccccc2)cnn1-c1cccc(C(F)(F)F)c1`, the EC50 [1] was 0.538 µM (active), the EC50 [2] was 56.7 µM (active) and the EC50 (H4) was 8 µM (active).

For `Cc1cc(N/C=C\C(=O)c2ccc(Cl)c(Cl)c2)no1`, the EC50 [1] was 2.53 µM (active), the EC50 [2] was 15 µM (active) and the EC50 (H4) was > 120 µM (not active).

For `O=C(CSc1nnc(-c2ccc(F)cc2)c2ccccc12)Nc1cccc(Cl)c1`, the EC50 [4] was 2.16 µM (active) and the EC50 [5] was > 30 µM (not active).

With `COc1ccc(C(=O)N2CCC3(CCCN(Cc4nccs4)C3)CC2)cc1` the AC50 (Cytochrome P450 3A4) was 7.94 µM (inconclusive).

With `CCOC(=O)c1sc2ncnc(N3CCN(CC)CC3)c2c1C` the EC50 [4] was 0.577 µM (active) and the EC50 [5] was > 60 µM (inconclusive).

In the case of `N=C(N)NC(=O)c1nc(Cl)c(N)nc1N` [AMILORIDE HYDROCHLORIDE], the AC50 (Cytochrome P450 1A2) was 6.31 µM (inconclusive).

In the case of `NC(=O)c1c(NC(=O)CCCn2cnc([N+](=O)[O-])n2)sc2c1CCCC2`, the EC50 [4] was 0.125 µM (active) and the EC50 [5] was > 60 µM (not active).

In the case of `CC(=O)Nc1cccc(OC(=O)c2ccoc2C)c1`, the EC50 [3] was 4.9 µM (active).

For `CN(C)c1ncc2nc(-c3ccc(F)cc3)c(=O)n(Cc3cccs3)c2n1`, the AC50 (Cytochrome P450 3A4) was 25.1 µM (inconclusive).

For `Cc1ccc(NC2CCCN(C(=O)CSc3ccncc3)C2)cc1C` (centres undefined), the EC50 [4] was 0.294 µM (active) and the EC50 [5] was > 60 µM (not active).

For `Cn1c(=O)cc(OCCCC(=O)N2CCN(c3ccccc3)CC2)c2ccccc21`, the AC50 (Cytochrome P450 1A2) was 15.8 µM (inconclusive) and the AC50 (Cytochrome P450 3A4) was 1.12 µM (inconclusive).

With `CCOC(=O)c1sc(NC(=O)c2cc(-c3ccccc3)nc3ccccc23)c(C#N)c1C` the EC50 [3] was 0.544 µM (active).

For `CCOC(=O)N1CC=C2C(C#N)=C(N)C(C#N)(C#N)[C@H](c3ccccc3OCC)[C@H]2C1`, the EC50 [1] was > 120 µM (not active), the EC50 [2] was > 120 µM (not active) and the EC50 (H4) was > 120 µM (not active).

In the case of `O=[N+]([O-])c1cccc(-c2cn(-c3ccccc3)c(S)n2)c1`, the EC50 [1] was 5.64 µM (active), the EC50 [2] was > 120 µM (not active) and the EC50 (H4) was > 120 µM (not active).

For `Cc1ccc2nc(NC(=O)C3CCCN(S(=O)(=O)c4c[nH]cn4)C3)sc2c1` (centres undefined), the EC50 [1] was 30.4 µM (active), the EC50 [2] was 23.4 µM (active) and the EC50 (H4) was 20.8 µM (active).

With `O=C(Nc1ccc(SC(F)F)cc1)c1ccc2c(=O)n3c(nc2c1)CCC3` the EC50 [3] was 1.4 µM (active).

With `CO[C@@H]1COC(=O)[C@H](COCc2ccccc2)NC(=O)C/C=C\[C@@H](C)[C@H](OC)COC(=O)[C@@H](C)NC(=O)C/C=C\[C@H]1C` the AC50 (Cytochrome P450 3A4) was 3.16 µM (inconclusive).

In the case of `Cc1cccc(CSc2nc3c(cc2C#N)CN(C)CC3)c1`, the EC50 [4] was 0.156 µM (active) and the EC50 [5] was > 30 µM (not active).

With `CCN1CCN(c2ccc(S(=O)(=O)N3CCOCC3)cc2NC(=O)CCOc2ccccc2)CC1` the EC50 [4] was 1.26 µM (active) and the EC50 [5] was > 60 µM (not active).

For `CCc1ccc(N2CC(C(=O)NC3=NCCS3)CC2=O)cc1` (centres undefined), the AC50 (Cytochrome P450 1A2) was 20 µM (inconclusive).

In the case of `Cc1cc(C)c2c(N)c(C(=O)c3ccccc3Cl)sc2n1`, the EC50 [4] was 0.1 µM (active) and the EC50 [5] was > 60 µM (not active).

For `CCOc1ccc(Nc2ncnc3c2nnn3Cc2ccccc2)cc1`, the EC50 [1] was 17.7 µM (active), the EC50 [2] was 18.8 µM (active) and the EC50 (H4) was 30.9 µM (active).

For `Cc1nc(-c2ccncc2)nc(NCCNc2ncccc2C(F)(F)F)c1Cl`, the EC50 [4] was 0.364 µM (active) and the EC50 [5] was > 60 µM (not active).

For `O[C@@H](c1cc(-c2ccccc2)nc2c1ccc1ccccc12)[C@@H]1CCCCN1`, the AC50 (Cytochrome P450 1A2) was 5.01 µM (inconclusive).

With `Cc1nn(-c2ccc3ccccc3c2)c(=O)c2ccccc12` the EC50 [1] was < 0.1 µM (active), the EC50 [2] was 0.213 µM (active) and the EC50 (H4) was 29.7 µM (active).

In the case of `C[C@@H](C(=O)O)c1ccc(-c2ccccc2)c(F)c1` [TARENFLURBIL], the AC50 (Cytochrome P450 1A2) was 31.6 µM (inconclusive).

For `O=C(Nn1cc(C(=O)N2CCN(c3ccccc3F)CC2)c2ccccc2c1=O)c1cnccn1`, the AC50 (Cytochrome P450 1A2) was 12.6 µM (inconclusive) and the AC50 (Cytochrome P450 3A4) was 28.2 µM (inconclusive).

With `Oc1ccc2c3c1O[C@H]1c4oc5ccccc5c4C[C@]4(O)[C@H](C2)N(CC2CC2)CC[C@@]314` the AC50 (Cytochrome P450 3A4) was 15.8 µM (inconclusive).

In the case of `Cc1ccc(NC(=O)CN2CCCCCC2)c(Br)c1`, the EC50 [2] was 9.38 µM (active) and the EC50 (H4) was 59.9 µM (active).

For `C=CCN1C(=O)NC(=O)/C(=C/c2cccn2C)C1=O`, the AC50 (Cytochrome P450 1A2) was 15.8 µM (inconclusive).

For `COc1cc2c(cc1OC)[C@@H]1Cc3ccc(OC)c(OC)c3CN1CC2`, the EC50 [4] was > 60 µM (not active) and the EC50 [5] was > 60 µM (not active).

With `CS(=O)(=O)Nc1ccc([N+](=O)[O-])cc1OC1CCCCC1` [NS-398] the AC50 (Cytochrome P450 3A4) was 20 µM (inconclusive).

In the case of `Cc1ccc(S(=O)(=O)Nc2cccc(C(=O)NC3CCN(Cc4ccccc4)CC3)c2)cc1F`, the EC50 [4] was 1.12 µM (active) and the EC50 [5] was > 60 µM (not active).

With `Cc1ccc(NC(=O)CCSc2nnc3ccccn23)cc1` the AC50 (Cytochrome P450 3A4) was 0.891 µM (inconclusive).

In the case of `Cc1[nH]c2ccc(-c3nnc(SCC(=O)N4CCCc5ccccc54)o3)cc2c1C`, the EC50 [4] was 0.782 µM (active) and the EC50 [5] was > 60 µM (not active).

In the case of `Cc1nc2c(ccc3nc(NC(=O)c4ccc5c(c4)OCCO5)sc32)s1`, the EC50 [4] was 3.07 µM (active) and the EC50 [5] was > 30 µM (not active).

With `CN1CCN(CCCc2c3c(cc4c2CCC4)CCC3)CC1` the EC50 [4] was 0.601 µM (active) and the EC50 [5] was > 60 µM (not active).

For `Cc1cccc2sc(N(CCN(C)C)C(=O)C3CCN(S(=O)(=O)c4cccs4)CC3)nc12`, the EC50 [4] was 0.24 µM (active) and the EC50 [5] was > 60 µM (not active).

For `CO[C@@H]1COC(=O)C/C=C\[C@@H](C)COC(=O)[C@H](Cc2ccccc2)NC(=O)C/C=C\[C@H]1C`, the AC50 (Cytochrome P450 3A4) was 1.58 µM (inconclusive).

With `Clc1ccc(CSc2nnc(-c3ccncc3)s2)cc1` the EC50 [4] was 2.14 µM (active) and the EC50 [5] was 26.3 µM (active).

In the case of `COc1ccc(C(CNC(=O)c2cc(O)nc3ccccc23)N2CCCC2)cc1` (centres undefined), the AC50 (Cytochrome P450 1A2) was 20 µM (inconclusive) and the AC50 (Cytochrome P450 3A4) was 15.8 µM (inconclusive).

In the case of `Cn1c(C(=O)OC(C(=O)NC2CCCC2)c2cccnc2)cc2sccc21` (centres undefined), the EC50 [4] was 0.489 µM (active) and the EC50 [5] was > 60 µM (not active).

For `Cc1nn(CC(O)COc2ccc3c(c2)CCC3)c(C)c1Br` (centres undefined), the AC50 (Cytochrome P450 3A4) was 15.8 µM (inconclusive).

With `CNCCC=C1c2ccccc2CCc2ccccc21` [NORTRIPTYLINE] the AC50 (Cytochrome P450 1A2) was 25.1 µM (inconclusive).

With `COc1ccc(CNN2CCCCC2C(=O)Nc2ccc(OC)c(OCC(C)C)c2)cc1OC` (centres undefined) the EC50 [4] was > 60 µM (not active) and the EC50 [5] was > 60 µM (not active).

With `Cc1ccc(Cl)cc1N1CCN(CC(=O)Nc2ccc(CN3CCCCC3)cc2)CC1` the EC50 [4] was 1.31 µM (active) and the EC50 [5] was > 60 µM (not active).

With `O=c1c(CCc2ccccc2)nc2cnc(N3CCOCC3)nc2n1Cc1ccc(F)cc1` the AC50 (Cytochrome P450 1A2) was 10 µM (inconclusive).

In the case of `O=C(C[n+]1c2n(c3ccc(C(F)(F)F)cc31)CCCCC2)c1ccc2c(c1)OCCO2`, the EC50 [4] was 1.3 µM (active) and the EC50 [5] was > 60 µM (not active).
